Numbers after ± are expanded uncertainties.

This series can be described thus: wn = mass fraction of the nth substance listed. The conditions noted are these: 101.3 kPa, Liquid, Vibrating tube method.

With `O=C(O)CCCC(=O)O` [1,5-pentanedioic acid] + CCO, the mass density (usually mass per unit of volume) came to 967.2 ± 0.8 kg/m3 (283.15 K, w1 = 0.1926); 999.4 ± 1.6 kg/m3 (303.15 K, w1 = 0.4065); 1005.4 ± 1.8 kg/m3 (313.15 K, w1 = 0.5552).
For the compound `O=C(O)CCCCC(=O)O` [1,6-hexanedioic acid] + CCO, the mass density was 841 ± 0.3 kg/m3 (283.15 K, w1 = 0.06948); 855.2 ± 0.5 kg/m3 (303.15 K, w1 = 0.1384); 876.9 ± 0.7 kg/m3 (313.15 K, w1 = 0.1853).

The values above are taken from the NIST ThermoML archive (doi:10.1016/j.fluid.2015.09.036).
